# From EP2229935A1, “Peptide derivatives or pharmaceutically acceptable salts thereof, method for producing the same, use of said derivatives and pharmaceutical composition” (Nebolsin, Vladimir Evgenievich, priority 1997, dated 1999)
# Marks after values point to notes of the source that are not given here.
# Tests used:
# [1] = tested on: NK-cells; test: Activity of NK-cells after swimming stress (H^3-uridine release from YAC-1); type: in vivo, Balb male mice; conditions: 50 µg/kg orally four times
# Method: (§1) Experiments were carried out on inbred Balb male mice with initial body mass 16-18 g. Each group included 12 animals. The model of swimming in warm water for 20 minutes was used to develop emotional-locomotory stress in animals. Stress development was estimated by the activity of natural killer lymphocytes (NK cells) and by functioning of the interferon system [Sukhikh T.G., Nossik N.N., Parshina O.V., Van'ko L.V., Meerson F.Z., Yershov F.I. Relationship between the natural cellular cytotoxicity system and the interferon system in immobilization stress. Bulletin of Experimental Biology (1984), ? , pp.593-595].
# Activity of NK-cells was determined in the test of H^3-uridine release from the labelled target cells YAC-1 (mouse cellular lymphoma maintained by passages in vitro in suspension in the RPMI-1640 medium with 10% fetal serum). H^3-uridine (3-5 µC/cells/ml) was introduced into cellular suspension at concentration 1 miilion cells/ml on the 60th minute while shaking with 15 minute inerval and subsequent washing with the medium.
# Splenocytes of mice which were obtained using the published method [Nossik N.N., Bopegamage S.A., Yershov F.I. Properties of interferons produced by different cell populations. Acta microbiologica Hungarica (1988), Vol. 35, Iss. 4, pp. 397-403] served as the source of NK-cells.
# (§2) Animals were divided into four groups, each including 36 mice. • Group 1 - intact animals not subjected to stress and given normal saline (NS). • Group 2 - animals which ere subjected to stress effect and given NS. • Group 3 - animals which were subjected to stress effect and administered compound III. • Group 4 - animals which were subjected to stress effect and administered compound XLIV.
# (§3) Activity of NK-cells and interferon state were dynamically determined in 4 hours following stress, in 24 hours and then by days 5, 7 and 10.
# [2] = tested on: mongrel male mice; test: Passive cutaneous anaphylaxis reaction; type: in vivo; conditions: PCA, oral 3 days
# Method: Experiments were carried out on mongrel male mice with initial body mass 22-24 g. Each group included 10 animals. Sensibilization of animals was accomplished by intradermal injection of 20-30 µl of the serum of mice obtained from preliminaryly immunized animals comprising reagent antibodies against chicken ovalbumin (OVA). […] In 48 hours after sensibilzation an anaphylaxis-provoking OVA dose (1 mg and 0,2 ml Evans blue in 0.2 ml normal saline) were intravenously injected to mice. Passive cutaneous anaphylaxis reaction intensity (PCA) was determined in 30 minutes by the size (area) of a blue spot on the internal skin surface in the site of reagent anibodies' administration. Spot size was measured in two mutually perpendicular directions and the result was expressed in mm^2.
# [3] = tested on: Male guinea pigs; test: Antigen-induced bronchospasm in actively sensitized guinea pigs; type: in vivo; conditions: sensitized guinea pigs
# Method: Antiasthmatic effect of the test compounds was studied using an antigen-induced bronchospasm model in actively sensitized guinea pigs according to the Andersson method [Andersson P. Antigen induced bronchial anaphylaxis in actively sensitized guinea pig. Allergy (1980), Vol. 35, pp. 65-71].
# Male guinea pigs were sensitized with intramuscular injection of 0.5 ml suspension comprising 20 micrograms ovalbumin (OVA, manufactured by the Sigma company [grade III]) and 100 mg Al(OH)3 per one animal. Anaphylaxis-provoking dose 150-200 µg/kg OVA in 0.1 ml normal saline was intravenously (v. jugularis) injected on day 26 after sensibilization. Bronchospasm induction and measuring external respiration parameters were carried out according to the method described in Yu-Hong L., Barnes P., Rogers D. Inhibition of neurogenic plasma exudation and bronchoconstriction by a K+ channel activator, BRL 38227, in guinea pig airways in vivo. Europ. J. Pharmacol. (?), Vol. 239, pp.257-259]. Measurement of respiration parameters was performed using a transducer (Ugo Basel, model 7020), connected with a cannula and a recorder (Millichrome), recording breathing amplitude. […] Efficacy of compounds was determined by change in bronchospasm value.
# Inthal was used as a reference drug that was administered to animals at a dose 5 µg/kg according to the same dosage regimen as the test substances were administered. The control group of animals received equivalent amount of normal saline.
# Groups of animals: group 1 - control; group 2 - animals given Inthal; group 3 - animals given oral compound XLIV; group IV - animals given oral compound III; group 5 - animals given intratracheal compound III; group 6 - animals given compound XLIX, group 7 - animals given compound XXXI, group 8 - animals given compound XLVI; group 9 - animals given compound VI, group 10 - animals given compound XLVIII.
# [4] = tested on: γ-interferon; test: γ-interferon production by splenocytes after stress; type: in vivo, Balb male mice; conditions: 50 µg/kg orally
# Method: as §1
# (§4) In studying interferon reaction of mouse splenocytes spleen cells were placed into incubation medium (the RPMI-1640 medium + 10% fetal calf serum), their concentration was brought to 1-3 x 10^8 cells/ml and they were incubated at 37°C for 24 hours. Newcasle disease virus (α-interferon induction) and FGA mitogen (γ-interferon induction) were used as intereferon inducers [Nossik N.N., Bopegamage S.A., Yershov F.I. Properties of interferons produced by different cell populations. Acta microbiologica Hungarica (1988), Vol. 35, Iss. 4, pp. 397-403].
# as §2, §3
# [5] = tested on: progesterone, 17-oxyprogesterone, 11-desoxycortisol and cortisol; test: Blood serum hormone levels (radioimmunoassay); type: in vivo, guinea pigs; conditions: for Progesterone, blood serum level (Experiment) / Oxyprogesterone, blood serum level (Experiment) / Desoxycortisol, blood serum level (Experiment) / Cortisol, blood serum level (Experiment): oral three times 50 µg/kg
# Method: Sensibilization of animals was done as described in example 27. Blood for hormonal level determination was sampled in animals before commencement of experiment and 18 hours after the last drug administration from 10 to 11 hours. […] A comparative hormonal state analysis was carried out by individual changes in each animal in a group. Mean parametric values expressed in nM/l, are presented by the groups in table 21.
# Blood serum levels of the hormones progesterone, 17-oxyprogesterone, 11-desoxycortisol and cortisol were determined by radioimmunoassay using the Beloris company kits. Hormone concentration in samples was determined by the relation graph between the activity of a precipitated bound labelled hormone and hormone concentration in the calibration samples.
# [6] = tested on: α-interferon; test: α-interferon production by splenocytes after stress; type: in vivo, Balb male mice; conditions: 50 µg/kg orally
# Method: as §1, §4, §2, §3
# [7] = 50 µg/kg per os, 72, 48 and 18 hours prior to bronchospasm induction
Compound,activity of NK-cells ([1]; 0.16 days after stress),activity of NK-cells ([1]; 1 day after stress),activity of NK-cells ([1]; 5 days after stress),activity of NK-cells ([1]; 7 days after stress),activity of NK-cells ([1]; 10 days after stress),Percent of the reaction inhibition ([2]; 50 µg/kg),"Reaction intensity, mm^2 ([2]; 50 µg/kg)","Bronchospasm (percent of the maximum value) [3, 7]","γ-interferon, U/ml ([4]; 0 days after stress)","γ-interferon, U/ml ([4]; 0.16 days after stress)","γ-interferon, U/ml ([4]; 1 day after stress)","γ-interferon, U/ml ([4]; 5 days after stress)","γ-interferon, U/ml ([4]; 7 days after stress)","γ-interferon, U/ml ([4]; 10 days after stress)","α-interferon, U/ml ([6]; 0 days after stress)","α-interferon, U/ml ([6]; 0.16 days after stress)","α-interferon, U/ml ([6]; 1 day after stress)","α-interferon, U/ml ([6]; 5 days after stress)","α-interferon, U/ml ([6]; 7 days after stress)","α-interferon, U/ml ([6]; 10 days after stress)",also measured
γ-L-glutamylhistamine [compound XLIV],69.5 ± 1.32**^2,"61.5 ± 2.64*^1,2",71 ± 0.82,67.7 ± 3.95,77.5 ± 1.65,50%,44.6 ± 11.6 mm^2,15.6 3.2** percent of the maximum value,80 U/ml,20 U/ml,320 U/ml,40 U/ml,32 U/ml,32 U/ml,160 U/ml,10 U/ml,80 U/ml,80 U/ml,100 U/ml,140 U/ml,"Progesterone, blood serum level (Experiment) ([5]; intact guinea pigs, individual control 2.53): 2.87 nM/l; Oxyprogesterone, blood serum level (Experiment) ([5]; intact guinea pigs, individual control 2.83): 3.88* nM/l; Desoxycortisol, blood serum level (Experiment) ([5]; intact guinea pigs, individual control 20.8): 30.95* nM/l; Cortisol, blood serum level (Experiment) ([5]; intact guinea pigs, individual control 1474.5): 1891.5* nM/l; Progesterone, blood serum level (Experiment) ([5]; sensitized guinea pigs, individual control 1.73): 5.08** nM/l; Oxyprogesterone, blood serum level (Experiment) ([5]; sensitized guinea pigs, individual control 1.79): 2.31* nM/l; Desoxycortisol, blood serum level (Experiment) ([5]; sensitized guinea pigs, individual control 28.9): 33.5 nM/l; Cortisol, blood serum level (Experiment) ([5]; sensitized guinea pigs, individual control 1910.3): 1997.0 nM/l"
"O=C(O)CCCC(=O)NCCc1c[nH]cn1 [compound III, N-GLUTARYLHISTAMINE]","68.5 ± 0.99*^1,2",69.3 ± 1.81***^2,79 ± 1.46,69.3 ± 4.85,77 ± 1.98,42%,51.6 ± 17.1*^2 mm^2,12.0 4.0** percent of the maximum value,80 U/ml,80 U/ml,32 U/ml,32 U/ml,320 U/ml,80 U/ml,160 U/ml,10 U/ml,10 U/ml,160 U/ml,160 U/ml,160 U/ml,"Percent of the reaction inhibition ([2]; 150 µg/kg): 34.3%; Reaction intensity, mm^2 ([2]; 150 µg/kg): 53.7 ± 10.1*^1 mm^2; Percent of the reaction inhibition ([2]; 500 µg/kg): 30.0%; Reaction intensity, mm^2 ([2]; 500 µg/kg): 57.2 ± 12.6*^1 mm^2; Bronchospasm (percent of the maximum value) ([3]; 50 µg/kg intratracheally, 15 minutes prior to bronchospasm induction): 24.6 6.4* percent of the maximum value; hormonal state changes ([5]; intact and sensitized guinea pigs, compared with compound XLIV): the same hormonal state changes were observed"
